Laboratory results as given in patent US9556228B2 (Universitaet Leipzig, priority 2011, dated 2017).
Values after ≈ are worked out from the molar mass of the structure shown. Peptide text beside a SMILES is read from it.

Legend:
Format in all cases: cell-based
[1] = system: Pseudomonas aeruginosa PAO1 (wt strain); settings: for Improvement over Native Sequence (SEQ No. 2) P. aeruginosa PAO1 wt: fold, from MIC in 1/8 MHB
Experimental: (§1) The minimum inhibitory concentrations (MIC) of the peptides were determined in a double assay of triplicates using a positive control sample (gentamycin) and a negative control sample (0.9% NaCl solution), according to a modified protocol from Wiegand et al. (Wiegand, 2008).
(§2) For this purpose, the peptides were dissolved in water and were diluted in a double dilution series with 1/8 MH (eight-fold diluted Mueller-Hinton-Medium—2.6 g/L, Merck) in sterile 96-well, plates (Greiner Bio-One GmbH) in twelve dilution steps from 128 μg/mL to 62.5 ng/mL. Overnight cultures were adjusted using ⅛ MHB to approximately 1.5×10^7 colony forming units per mL. Of these, 50 μL of peptide solution per well was mixed with 50 μL bacteria solution each to obtain an initial concentration of […] bacteria per well. After 20 hours of incubation at 37′C, the absorption was determined at 595 nm (microplate reader, Wallac Victor3, Perkin Elmer). The minimum inhibitory concentration was identified as the lowest peptide concentration at which no bacterial growth could be detected.
(§3) In the experiment, the antibacterial activity of the peptides according to the invention in relation to the following bacterial strains was analyzed: Pseudomonas aeruginosa PAO1 (wt strain), Pseudomonas aeruginosa DSM 9644, Staphylococcus aureus DSM 1104/ATCC 25923, Staphylococcus aureus ATCC 6247, Escherichia coli UB 1005 (F—, nalA37, metB1) and Escherichia coli ATCC25922.

[2] = system: Staphylococcus aureus DSM 1104/ATCC 25923; settings: for MIC S. aureus ATCC 25923: DSM 1104; for Improvement over Native Sequence (SEQ No. 2) S. aureus ATCC 25923: fold, from MIC in 1/8 MHB
Experimental: as §1, §2, §3

Escherichia coli UB 1005 = experiment: Minimum inhibitory concentration (MIC), broth microdilution; settings: for MIC E. coli UB1005: 1/8 MHB, Table 4; for Improvement over Native Sequence (SEQ No. 2) E. coli UB1005: fold, from MIC in 1/8 MHB
Experimental: as §1, §2, §3

Compound	MIC P. aeruginosa PAO1 wt [1]	Improvement over Native Sequence (SEQ No. 2) P. aeruginosa PAO1 wt [1]	MIC S. aureus ATCC 25923 [2]	Improvement over Native Sequence (SEQ No. 2) S. aureus ATCC 25923 [2]	MIC E. coli UB1005 (Escherichia coli UB 1005)	Improvement over Native Sequence (SEQ No. 2) E. coli UB1005 (Escherichia coli UB 1005)
CC[C@H](C)[C@H](NC(=O)[C@H](Cc1ccc(O)cc1)NC(=O)[C@@H](NC(=O)[C@@H]1CCCN1C(=O)[C@H](CCCNC(=N)N)NC(=O)[C@H](CC(N)=O)NC(=O)[C@H](CC(N)=O)NC(=O)CN)C(C)C)C(=O)N1CCC[C@H]1C(=O)N[C@@H](CCC(N)=O)C(=O)N1CCC[C@H]1C(=O)N[C@@H](CCCNC(=N)N)C(=O)N1CCC[C@H]1C(=O)N1CCC[C@H]1C(=O)N[C@@H](Cc1c[nH]cn1)C(=O)N1CCC[C@H]1C(=O)N[C@@H](CCCNC(=N)N)C(=O)N[C@@H](CCCNC(=N)N)C(N)=O [compound 62] (H-GNNRPVYIPQPRPPHPRR-NH2; N-terminus assumed)	125 µg/mL (≈ 58.1 µM)	4	125 µg/mL (≈ 58.1 µM)	2	1.25 to 2.5 µg/mL	2-4
CC[C@H](C)[C@H](NC(=O)[C@H](Cc1ccc(O)cc1)NC(=O)[C@@H](NC(=O)[C@H](CS)NC(=O)[C@H](CCCNC(=N)N)NC(=O)[C@H](CC(N)=O)NC(=O)[C@H](CC(N)=O)NC(=O)CN)C(C)C)C(=O)N1CCC[C@H]1C(=O)N[C@@H](CCC(N)=O)C(=O)N1CCC[C@H]1C(=O)N[C@@H](CCCNC(=N)N)C(=O)N1CCC[C@H]1C(=O)N1CCC[C@H]1C(=O)N[C@@H](Cc1c[nH]cn1)C(=O)N1CCC[C@H]1C(=O)N[C@@H](CCCNC(=N)N)C(=O)N[C@@H](CC(C)C)C(N)=O [compound 56] (H-GNNRCVYIPQPRPPHPRL-NH2; N-terminus assumed)	125 µg/mL (≈ 59.1 µM)	4	31 µg/mL (≈ 14.7 µM)	8	10 µg/mL (≈ 4.73 µM)	1
CC(C)C[C@H](NC(=O)[C@H](CCCNC(=N)N)NC(=O)[C@@H]1CCCN1C(=O)[C@H](Cc1c[nH]cn1)NC(=O)[C@@H]1CCCN1C(=O)[C@@H]1CCCN1C(=O)[C@H](CCCNC(=N)N)NC(=O)[C@@H]1CCCN1C(=O)[C@H](CCC(N)=O)NC(=O)[C@@H]1CCCN1C(=O)[C@H](CCCNC(=N)N)NC(=O)[C@H](Cc1ccc(O)cc1)NC(=O)[C@@H](NC(=O)[C@@H]1CCCN1C(=O)[C@H](CCCNC(=N)N)NC(=O)[C@H](CC(N)=O)NC(=O)[C@H](CC(N)=O)NC(=O)CN)C(C)C)C(N)=O [compound 58] (H-GNNRPVYRPQPRPPHPRL-NH2; N-terminus assumed)	64 µg/mL (≈ 29.8 µM)	8	63 µg/mL (≈ 29.3 µM)	4	0.313 µg/mL (≈ 0.146 µM)	16
CC[C@H](C)[C@H](NC(=O)[C@H](Cc1ccc(O)cc1)NC(=O)[C@@H](NC(=O)[C@@H]1CCCN1C(=O)[C@H](CCCNC(=N)N)NC(=O)[C@H](CC(N)=O)NC(=O)[C@H](CCCNC(=N)N)NC(=O)CN)C(C)C)C(=O)N1CCC[C@H]1C(=O)N[C@@H](CCC(N)=O)C(=O)N1CCC[C@H]1C(=O)N[C@@H](CCCNC(=N)N)C(=O)N1CCC[C@H]1C(=O)N1CCC[C@H]1C(=O)N[C@@H](Cc1c[nH]cn1)C(=O)N1CCC[C@H]1C(=O)N[C@@H](CCCNC(=N)N)C(=O)N[C@@H](CC(C)C)C(N)=O [compound 55] (H-GRNRPVYIPQPRPPHPRL-NH2; N-terminus assumed)	64 to 128 µg/mL	4-8	32 µg/mL (≈ 14.9 µM)	8	0.625 µg/mL (≈ 0.291 µM)	8
CC[C@H](C)[C@H](NC(=O)[C@H](Cc1ccc(O)cc1)NC(=O)[C@@H](NC(=O)[C@H](CCCNC(=N)N)NC(=O)[C@H](CCCNC(=N)N)NC(=O)[C@H](CC(N)=O)NC(=O)[C@H](CC(N)=O)NC(=O)CN)C(C)C)C(=O)N1CCC[C@H]1C(=O)N[C@@H](CCC(N)=O)C(=O)N1CCC[C@H]1C(=O)N[C@@H](CCCNC(=N)N)C(=O)N1CCC[C@H]1C(=O)N1CCC[C@H]1C(=O)N[C@@H](Cc1c[nH]cn1)C(=O)N1CCC[C@H]1C(=O)N[C@@H](CCCNC(=N)N)C(=O)N[C@@H](CC(C)C)C(N)=O [compound 57] (H-GNNRRVYIPQPRPPHPRL-NH2; N-terminus assumed)	64 µg/mL (≈ 29.5 µM)	8	32 µg/mL (≈ 14.8 µM)	8	5 µg/mL (≈ 2.31 µM)	1
CC[C@H](C)[C@H](NC(=O)[C@H](Cc1ccc(O)cc1)NC(=O)[C@@H](NC(=O)[C@@H]1CCCN1C(=O)[C@H](CCCNC(=N)N)NC(=O)[C@H](CC(N)=O)NC(=O)[C@H](Cc1c[nH]c2ccccc12)NC(=O)CN)C(C)C)C(=O)N1CCC[C@H]1C(=O)N[C@@H](CCCNC(=N)N)C(=O)N1CCC[C@H]1C(=O)N[C@@H](CCCNC(=N)N)C(=O)N1CCC[C@H]1C(=O)N1CCC[C@H]1C(=O)N[C@@H](Cc1c[nH]cn1)C(=O)N1CCC[C@H]1C(=O)N[C@@H](CCCNC(=N)N)C(=O)N[C@@H](CC(C)C)C(N)=O [compound 63] (H-GWNRPVYIPRPRPPHPRL-NH2; N-terminus assumed)	16 to 32 µg/mL	16-32	16 µg/mL (≈ 7.25 µM)	16		8
CC[C@H](C)[C@H](NC(=O)[C@H](Cc1ccc(O)cc1)NC(=O)[C@@H](NC(=O)[C@@H]1CCCN1C(=O)[C@H](CCCNC(=N)N)NC(=O)[C@H](CC(N)=O)NC(=O)[C@H](Cc1c[nH]c2ccccc12)NC(=O)CN)C(C)C)C(=O)N1CCC[C@H]1C(=O)N[C@@H](CCC(N)=O)C(=O)N1CCC[C@H]1C(=O)N[C@@H](CCCNC(=N)N)C(=O)N1CCC[C@H]1C(=O)N1CCC[C@H]1C(=O)N[C@@H](Cc1c[nH]cn1)C(=O)N1CCC[C@H]1C(=O)N[C@@H](CCCNC(=N)N)C(=O)N[C@@H](CC(C)C)C(N)=O [compound 54] (H-GWNRPVYIPQPRPPHPRL-NH2; N-terminus assumed)	64 µg/mL (≈ 29.4 µM)	8	63 µg/mL (≈ 28.9 µM)	4	1.25 µg/mL (≈ 0.574 µM)	4
CC[C@H](C)[C@H](NC(=O)[C@H](Cc1ccc(O)cc1)NC(=O)[C@@H](NC(=O)[C@@H]1CCCN1C(=O)[C@H](CC(=O)O)NC(=O)[C@H](CC(N)=O)NC(=O)[C@H](CC(N)=O)NC(=O)CN)C(C)C)C(=O)N1CCC[C@H]1C(=O)N[C@@H](CCC(N)=O)C(=O)N1CCC[C@H]1C(=O)N[C@@H](CCCNC(=N)N)C(=O)N1CCC[C@H]1C(=O)N1CCC[C@H]1C(=O)N[C@@H](Cc1c[nH]cn1)C(=O)N1CCC[C@H]1C(=O)N[C@@H](CCCNC(=N)N)C(=O)N[C@@H](CC(C)C)C(N)=O [compound 91] (H-GNNDPVYIPQPRPPHPRL-NH2; N-terminus assumed)	121.0 µg/mL (≈ 58.6 µM)	4	>60.5 µg/mL		>19.4 µg/mL	<0.25
CC[C@H](C)[C@H](NC(=O)[C@H](Cc1ccc(O)cc1)NC(=O)[C@@H](NC(=O)[C@@H]1CCCN1C(=O)[C@H](CCCNC(=N)N)NC(=O)[C@H](CC(N)=O)NC(=O)[C@H](CC(N)=O)NC(=O)CN)C(C)C)C(=O)N1CCC[C@H]1C(=O)N[C@@H](CCC(N)=O)C(=O)N1CCC[C@H]1C(=O)N[C@@H](CCCNC(=N)N)C(=O)N1CCC[C@H]1C(=O)N[C@@H](CS)C(=O)N[C@@H](Cc1c[nH]cn1)C(=O)N1CCC[C@H]1C(=O)N[C@@H](CCCNC(=N)N)C(=O)N[C@@H](CC(C)C)C(N)=O [compound 60] (H-GNNRPVYIPQPRPCHPRL-NH2; N-terminus assumed)	250 µg/mL (≈ 118 µM)	2	16 µg/mL (≈ 7.57 µM)	16	20 µg/mL (≈ 9.46 µM)	0
